Reference: BindingDB's records for doi:10.1016/j.bmcl.2012.05.087 (Actelion Pharmaceuticals, 2012)

experiment: Antagonist activity at human CRTh2 receptor in human whole blood assessed as inhibition of PGD2-induced eosinophil shape change after 10 mins by flow cytometric analysis in presence of 50% human plasma

First: COc1ccc(C(C)=O)cc1CSc1nc2ccccc2n1CC(=O)O
Second: CCCCNC(=O)c1ccc(OC)c(CSc2nc3cc(F)ccc3n2CC(=O)O)c1
The IC50 of the first is 2.6-fold lower: 16 nM for the first, 41 nM for the second. The first is the more potent here.

In the case of COc1ccc(C(=O)N2CCc3ccccc32)cc1CSc1nc2cc(F)ccc2n1CC(=O)O, the IC50 is reported as 51 nM.
